target: T1, CCR2 receptor (Homo sapiens, UniProt P41597); assay: Inhibition of MCP-1 induced Ca-flux in human THP-1 cells; type: cell-based; conditions: inhibition of specific MCP-1 (10^-7 M hMCP-1) induced Ca2+ flux in human THP-1 cells; pIC50 = -log IC50 (molar)
T1 construct: host or cells: THP-1 human monocytic cell line
T1 sequence (P41597 1-360 isoform P41597-2): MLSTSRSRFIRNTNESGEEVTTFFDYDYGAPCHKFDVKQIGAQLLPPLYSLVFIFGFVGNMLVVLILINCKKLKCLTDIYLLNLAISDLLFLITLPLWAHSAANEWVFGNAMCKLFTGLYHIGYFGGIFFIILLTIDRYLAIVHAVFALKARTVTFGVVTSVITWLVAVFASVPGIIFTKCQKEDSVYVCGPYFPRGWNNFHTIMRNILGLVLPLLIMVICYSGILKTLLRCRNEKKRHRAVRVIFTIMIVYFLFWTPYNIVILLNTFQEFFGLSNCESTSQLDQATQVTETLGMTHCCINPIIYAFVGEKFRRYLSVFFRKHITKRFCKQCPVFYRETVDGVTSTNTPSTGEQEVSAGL
Procedure: C. Pharmacological Example Inhibition of MCP-1 Induced Ca-flux in Human THP-1 Cells
MCP-1 binding to the CCR2 receptor induces a rapid and transient intracellular release of Ca^2+ (secondary messenger) in several cell lines (Charo et al, PNAS 1994). Free Ca^2+ levels can be measured using a Ca^2+ sensitive dye. When the CCR2 receptor is blocked with a CCR2 receptor antagonist, the MCP-1 induced release of Ca^2+ is inhibited.
Human THP-1 cells (monocytic cell line, ATCC TIB-202) were cultured in RPMI 1640 medium supplemented with 10% fetal calf serum (FCS), 1% L-Glutamine, penicillin (50 U/ml) and streptomycin (50 μg/ml) (all GIBCO BRL, Gent). After centrifugation, cells were loaded for 30 minutes with the Ca^2+ sensitive fluorescent dye Fluo-3 AM (Molecular Probes, Leiden, Netherlands) (2 million cells/ml in RPMI medium containing 4 μM Fluo-3 AM, 20 mM HEPES, 0.1% Bovine Serum Albumin (BSA) and 5 mM probenecid). Excess dye was removed by 3-fold washing with buffer (5 mM HEPES, 140 mM NaCl, 1 mM MgCl2, 5 mM KCl, 10 mM glucose, 2.5 mM probenecid, 1.25 mM CaCl2, 0.1% BSA; all further incubations were done in this buffer). Cells were plated at a density of 150 000 cells/well in dark-wall 96-well plates (Costar, Cambridge, Mass.) and sedimented by centrifugation (1 minute). The cells were pre-incubated for 20 minutes with test compound. Then, 10^−7 M hMCP-1 (Bachem, Bubendorf, Switserland) was added. Changes in intracellular free Ca^2+ concentration were measured using the Fluorescent Imaging Plate Reader (FLIPR, Molecular Devices, Munchen, Germany). Fluorescence was recorded every second from 10 seconds before the addition of the MCP-1 till 2 minutes after the addition (first minute: 60 records with 1 second intervals, second minute 20 records with 3 second intervals).
The maximal fluorescence obtained during this time frame was used for further calculations.
Table 4 reports pIC50 values obtained in the above-described test for compounds of formula (I). pIC50 defines −log IC50 wherein IC50 is the molar concentration of the test compound which inhibits 50% of specific MCP-1 induced Ca^2+ flux.

| Structure (SMILES) | IC50 |
| --- | --- |
| CCC(c1ccc(Cl)c(Cl)c1)n1c(C(=O)O)cnc1S (centres unmarked) [Compound 23] | 3310 nM |
| CCC(c1ccc(Cl)c(Cl)c1)n1c(C(=O)O)c(C(=O)O)[nH]c1=S (centres unmarked) [Compound 40] | 1380 nM |
| CCC(c1ccc(Cl)c(Cl)c1)n1c(C(=O)NNC=O)c[nH]c1=S (centres unmarked) [Compound 120] | 1050 nM |
| COC(=O)c1c[nH]c(=S)n1C(C)c1ccc(Cl)cc1 (centres unmarked) [Compound 31] | 3720 nM |
| CCC(c1ccc(Cl)c(Cl)c1)n1cc(C(=O)OC)nc1S (centres unmarked) [Compound 14] | 355 nM |
| CCC(c1ccc(F)c(C(F)(F)F)c1)n1c(C(=O)NC)c[nH]c1=S (centres unmarked) [Compound 49] | 2290 nM |
| CCC(c1ccc(Cl)c(Cl)c1)n1c(C(=O)N(C)OC)c[nH]c1=S (centres unmarked) [Compound 106] | 1780 nM |
| CCC(c1ccc(Cl)c(Cl)c1)n1c(C(=O)NCCO)c(COC)[nH]c1=S (centres unmarked) [Compound 115] | 1200 nM |
| CCC(c1ccc(Cl)c(Cl)c1)n1c(C(=O)OC(C)C)cnc1S (centres unmarked) [Compound 33] | 263 nM |
| CCC(c1ccc(F)c(F)c1)n1c(C(=O)OC)c(C(=O)OC(C)(C)C)[nH]c1=S (centres unmarked) [Compound 137] | 2510 nM |
| CCC(c1ccc(Cl)c(Cl)c1)n1c(S)nc(COC)c1C(=O)OC (centres unmarked) [Compound 89] | 107 nM |
| CCOC(=O)c1c(C)[nH]c(=S)n1C(CC)c1ccc(Cl)c(Cl)c1 (centres unmarked) [Compound 75] | 263 nM |
| CC(c1ccc(Cl)c(Cl)c1)n1c(C(N)=O)c[nH]c1=S (centres unmarked) [Compound 54] | 1100 nM |
| CCC(c1ccc(F)c(F)c1)n1c(C(=O)OC)c(C(N)=O)[nH]c1=S (centres unmarked) [Compound 142] | 58.9 nM |
| CC(c1ccc(Cl)c(Cl)c1)n1cc(C(N)=O)[nH]c1=S (centres unmarked) [Compound 91] | 8130 nM |
| CCC(c1ccc(Cl)c(Cl)c1)n1cc(C(=O)NC)[nH]c1=S (centres unmarked) [Compound 52] | 8130 nM |
| CCC(c1cc(F)cc(F)c1)n1c(C(=O)OC)c(C(=O)OC)[nH]c1=S (centres unmarked) [Compound 124] | 64.6 nM |
| CCC(c1ccc(Cl)c(Cl)c1)n1c(C(=O)OC)c(C)[nH]c1=S (centres unmarked) [Compound 6] | 263 nM |
| COC(=O)c1cnc(S)n1C(C)c1ccc(Cl)c(Cl)c1 (centres unmarked) [Compound 32] | 257 nM |

| Structure (SMILES) | IC50 |
| --- | --- |
| CCC(c1ccc(F)c(C(F)(F)F)c1)n1c(C(=O)OC)cnc1S (centres unmarked) [Compound 1] | 933 nM |
| COCC(c1ccc(Cl)c(Cl)c1)n1c(C(=O)OC)c(C(=O)OC)[nH]c1=S (centres unmarked) [Compound 100] | 32.4 nM |
| CCC(c1ccc(Cl)c(Cl)c1)n1c(S)nc(CO)c1C(=O)OC (centres unmarked) [Compound 85] | 153 nM |
| CC(c1ccc(Cl)c(Cl)c1)n1c(C(N)=O)c(C(N)=O)[nH]c1=S (centres unmarked) [Compound 98] | 2040 nM |
| CCCC(c1ccc(Cl)cc1)n1c(C(=O)OC)c[nH]c1=S (centres unmarked) [Compound 25] | 3550 nM |
| CCC(c1ccc(Cl)cc1)n1c(C(=O)OC)cnc1S (centres unmarked) [Compound 123] | 4680 nM |
| CCC(c1ccc(Cl)c(Cl)c1)n1c(C(=O)OC)c(C(=O)N2CCOCC2)[nH]c1=S (centres unmarked) [Compound 109] | 1150 nM |
| CCC(c1ccc(Cl)c(Cl)c1)n1c(C(=O)NC)c(COC)[nH]c1=S (centres unmarked) [Compound 114] | 1780 nM |
| COC(=O)c1[nH]c(=S)n(C(c2ccc(Cl)c(Cl)c2)C2CCCCC2)c1C(=O)OC (centres unmarked) [Compound 73] | 440 nM |
| CCC(c1ccc(Cl)c(Cl)c1)n1cc(C(N)=O)[nH]c1=S (centres unmarked) [Compound 51] | 1780 nM |
| CCC(c1cc(F)c(F)c(F)c1)n1c(C(=O)OC)c(C(=O)OC)[nH]c1=S (centres unmarked) [Compound 148] | 33.5 nM |
| CCC(c1ccc(Cl)c(Cl)c1)n1c(S)nc(C(N)=O)c1C(=O)OC (centres unmarked) [Compound 86] | 49.9 nM |
| COC(=O)c1c(C(N)=O)[nH]c(=S)n1C(C)c1ccc(Cl)c(Cl)c1 (centres unmarked) [Compound 90] | 133 nM |
| CCC(c1cc(F)cc(F)c1)n1c(C(=O)OC)cnc1S (centres unmarked) [Compound 118] | 8320 nM |
| COC(=O)c1cnc(S)n1C(C)(C)c1ccc(Cl)c(Cl)c1 [Compound 80] | 4790 nM |
| CCCCNC(=O)c1cnc(S)n1C(CC)c1ccc(F)c(F)c1 (centres unmarked) [Compound 44] | 3130 nM |
| CCC(c1ccc(F)c(F)c1)n1c(C(=O)NCC(C)C)cnc1S (centres unmarked) [Compound 45] | 2480 nM |
| CCC(c1ccc(Br)c(Br)c1)n1c(C(=O)O)c[nH]c1=S (centres unmarked) [Compound 74] | 3390 nM |
| CCC(c1ccc(C(F)(F)F)c(F)c1)n1c(S)nc(C(=O)OC)c1C(=O)OC (centres unmarked) [Compound 48] | 89.1 nM |

Further molecules by falling IC50, results first:

| IC50 | Structure (SMILES) |
| --- | --- |
| 1020 nM | CCC(c1ccc(Cl)c(Cl)c1)n1cc(C(=O)OCCO)[nH]c1=S (centres unmarked) [Compound 63] |
| 1020 nM | CCC(c1ccc(F)c(C(F)(F)F)c1)n1c(C(=O)OCC(=O)N(CC)CC)c[nH]c1=S (centres unmarked) [Compound 62] |
| 1020 nM | CCC(c1ccc(F)c(F)c1)n1c(C(=O)OC)cnc1S (centres unmarked) [Compound 21] |
| 1020 nM | CC[C@H](c1ccc(Cl)c(Cl)c1)n1c(C(=O)OC)cnc1S [Compound 16] |
| 891 nM | CCCC(c1cccc(Cl)c1)n1c(C(=O)OC)c[nH]c1=S (centres unmarked) [Compound 24] |
| 871 nM | CCC(c1ccc(Cl)c(Cl)c1)n1c(C(=O)NNC(C)=O)c[nH]c1=S (centres unmarked) [Compound 119] |
| 700 nM | CCC(c1ccc(Cl)c(Cl)c1)n1c(C#N)cnc1S (centres unmarked) [Compound 7] |
| 394 nM | CCCC(c1ccc(Cl)c(Cl)c1)n1c(C(=O)NC)c(C(=O)NC)[nH]c1=S (centres unmarked) [Compound 69] |
| 355 nM | CCC(c1ccc(Cl)c(Cl)c1)n1c(S)nc(C(=O)NC)c1C(=O)NC (centres unmarked) [Compound 107] |
| 347 nM | CCOC(=O)c1cnc(S)n1C(CC)c1ccc(F)c(C(F)(F)F)c1 (centres unmarked) [Compound 12] |
| 343 nM | CCC(c1ccc(C)c(C)c1)n1c(C(=O)OC)c(C(=O)OC)[nH]c1=S (centres unmarked) [Compound 99] |
| 305 nM | COCC(c1ccc(Cl)c(Cl)c1)n1c(C(=O)OC)cnc1S (centres unmarked) [Compound 94] |
| 299 nM | CCC(=O)c1c[nH]c(=S)n1C(CC)c1ccc(Cl)c(Cl)c1 (centres unmarked) [Compound 151] |
| 257 nM | CCC(c1ccc(Br)c(Br)c1)n1c(C(=O)OC)cnc1S (centres unmarked) [Compound 76] |
| 257 nM | CCC(c1ccc(Cl)c(Cl)c1)n1c(C#N)c(C(=O)NC)[nH]c1=S (centres unmarked) [Compound 70] |
| 245 nM | CCC(c1ccc(Cl)c(Cl)c1)n1c(C(=O)NN)c[nH]c1=S (centres unmarked) [Compound 95] |
| 229 nM | CCC(c1ccc(F)c(C(F)(F)F)c1)n1c(C(=O)OCCO)cnc1S (centres unmarked) [Compound 61] |

| IC50 | Structure (SMILES) |
| --- | --- |
| 219 nM | CCC(c1ccc(Cl)c(Cl)c1)n1c(C(=O)NC)cnc1S (centres unmarked) [Compound 34] |
| 204 nM | CCC(c1ccc(F)c(C(F)(F)F)c1)n1c(C(N)=O)cnc1S (centres unmarked) [Compound 10] |
| 203 nM | COC(=O)c1[nH]c(=S)n(C(c2ccccc2)c2ccc(Cl)c(Cl)c2)c1C(=O)OC (centres unmarked) [Compound 56] |
| 186 nM | CCC(c1ccc(Cl)c(Cl)c1)n1c(C(=O)OC)c(C(=O)NNC(C)=O)[nH]c1=S (centres unmarked) [Compound 96] |
| 168 nM | CCC(c1ccc(Br)c(Br)c1)n1c(C(N)=O)c(C(N)=O)[nH]c1=S (centres unmarked) [Compound 57] |
| 166 nM | CCC(c1cc(F)c(F)c(F)c1)n1c(C(N)=O)c[nH]c1=S (centres unmarked) [Compound 143] |
| 120 nM | CCC(c1ccc(Cl)c(Cl)c1)n1c(S)nc(C(N)=O)c1C#N (centres unmarked) [Compound 19] |
| 112 nM | CCC(c1ccc(Cl)c(Cl)c1)n1c(C(=O)OC)c(C(=O)NCCO)[nH]c1=S (centres unmarked) [Compound 110] |
| 85.7 nM | COCC(c1ccc(Cl)c(Cl)c1)n1c(C(N)=O)c[nH]c1=S (centres unmarked) [Compound 104] |
| 56.9 nM | CCC(c1ccc(Cl)c(Cl)c1)n1c(S)nc(C(N)=O)c1C(N)=O (centres unmarked) [Compound 20] |
| 35.5 nM | COC(=O)c1[nH]c(=S)n(Cc2ccc(Cl)c(Cl)c2)c1C(=O)OC [Compound 47] |
| 35 nM | CCC(c1ccc(Cl)c(Cl)c1)n1c(C(N)=O)cnc1S (centres unmarked) [Compound 8] |
| 32.4 nM | CCCC(c1ccc(Cl)c(Cl)c1)n1c(C(=O)OC)c(C(N)=O)[nH]c1=S (centres unmarked) [Compound 149] |
| 27.9 nM | COC(=O)c1[nH]c(=S)n(C(c2ccc(Cl)c(Cl)c2)C2CC2)c1C(=O)OC (centres unmarked) [Compound 4] |
| 12.6 nM | COC(=O)c1[nH]c(=S)n(C(C)c2ccc(Cl)c(Cl)c2)c1C(=O)OC (centres unmarked) [Compound 55] |
| 9.68 nM | CCC(c1ccc(Cl)c(Cl)c1)n1c(S)nc(C(=O)OC)c1C(=O)OC (centres unmarked) [Compound 37] |
